For 6 molecules, TGI results are on record in PubChem BioAssay (NCI).

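How tested: cells in 96-well plates exposed to compound for 48 hours at five concentrations. At the TGI there is no net growth.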 Some results are limits rather than exact numbers.

Test systems include SNB-19 CNS; COLO 205 colon; OVCAR-5 ovarian; HOP-62 NSCLC; HCC-2998 colon; SK-MEL-5 melanoma; SNB-75 CNS; PC-3 prostate; SW-620 colon; HT29 colon; TK-10 renal; NCI-H522 lung; A549 NSCLC; CAKI-1 renal; SF-539 CNS; MDA-N; SK-MEL-28 melanoma; HS 578T breast; UACC-257 melanoma; SK-OV-3 ovarian.
Holding throughout (test): NCI anticancer screen, dose series, 48 h

`CCOC(=O)c1ccc(Nc2nc3cc(C(F)(F)F)ccc3nc2-c2ccccc2)cc1`: the TGI was > 100 µM in the experiment with SNB-19 CNS; > 100 µM with COLO 205 colon; > 100 µM in the experiment with OVCAR-5 ovarian; 61.7 µM in the experiment on HOP-62 NSCLC; 89.5 µM in the experiment on HCC-2998 colon; > 100 µM in the experiment on SK-MEL-5 melanoma. For the same molecule, the TGI in the experiment with SNB-75 CNS was 39.4 µM; with PC-3 prostate it was 69.2 µM; with SW-620 colon, > 100 µM; in the experiment on HT29 colon, > 10 µM; with TK-10 renal, > 10 µM; in the experiment with NCI-H522 lung it was > 100 µM. In addition, the TGI in the experiment with A549 NSCLC was > 100 µM; in the experiment with CAKI-1 renal it was > 100 µM; in the experiment with SF-539 CNS, > 100 µM; in the experiment with MDA-N, > 100 µM; in the experiment on SK-MEL-28 melanoma it was > 100 µM; with HS 578T breast, 84.2 µM. Further, the TGI with UACC-257 melanoma is > 100 µM.
As to `CC1(c2ccc(F)cc2)CC(c2ccc(F)cc2)=C(C#N)C(=C(C#N)C#N)N1` (centres undefined), the TGI was determined as 35.1 µM with SNB-19 CNS; 27.9 µM with COLO 205 colon; 38.5 µM with OVCAR-5 ovarian; 37.3 µM in the experiment with SK-OV-3 ovarian; 38.6 µM with HOP-62 NSCLC; 28.2 µM in the experiment on HCC-2998 colon. The TGI turned out to be 28.5 µM in the experiment on SK-MEL-5 melanoma; 34.2 µM in the experiment with SNB-75 CNS; 31.4 µM in the experiment with PC-3 prostate; 62.1 µM in the experiment on SW-620 colon; 32.1 µM in the experiment with HT29 colon; 32.2 µM with TK-10 renal. Besides, the TGI came out at 41.7 µM in the experiment on A549 NSCLC; 30.2 µM in the experiment on CAKI-1 renal; 78.4 µM with SF-539 CNS; 34.3 µM in the experiment with MDA-N; 47.3 µM with SK-MEL-28 melanoma; 64.1 µM with HS 578T breast. In the experiment on UACC-257 melanoma, this molecule registered a TGI of 28.9 µM.
In the case of `CC(C)=CCC[C@@H](C)C1=C(O)C(Nc2ccccc2Br)=C(C)C(=O)C1=O`, the TGI in the experiment with SNB-19 CNS was 73 µM; in the experiment with COLO 205 colon it was 32.3 µM; in the experiment on OVCAR-5 ovarian, 41.9 µM; in the experiment on SK-OV-3 ovarian, 68 µM; in the experiment with HOP-62 NSCLC, 36.8 µM; in the experiment with HCC-2998 colon it was > 69.9 µM. The TGI with SK-MEL-5 melanoma was found to be 16.1 µM; in the experiment on SNB-75 CNS it was 66.2 µM; in the experiment with PC-3 prostate, 38.6 µM; in the experiment with SW-620 colon it was 52.1 µM; in the experiment with HT29 colon it was 37 µM; with TK-10 renal it was 68.2 µM. Further, the TGI in the experiment with A549 NSCLC was 44.6 µM; with CAKI-1 renal it was 52.1 µM; in the experiment with SF-539 CNS it was 25.1 µM; in the experiment on MDA-N, 27.5 µM; in the experiment with SK-MEL-28 melanoma, > 80.6 µM; with HS 578T breast, 49.3 µM. The molecule also had a TGI in the experiment on UACC-257 melanoma of 43.6 µM.
In the case of `Cc1ccc(/C(O)=C/c2nc3ccccc3oc2=O)cc1`, the TGI in the experiment with SNB-19 CNS is > 100 µM; in the experiment on COLO 205 colon it was > 100 µM; in the experiment with OVCAR-5 ovarian it was > 100 µM; in the experiment on HOP-62 NSCLC, > 100 µM; in the experiment on HCC-2998 colon it was > 100 µM; in the experiment with SK-MEL-5 melanoma, 46.2 µM. Moreover, the TGI in the experiment on SNB-75 CNS was > 100 µM; in the experiment on PC-3 prostate, > 100 µM; in the experiment on HT29 colon, > 100 µM; in the experiment with TK-10 renal, > 100 µM; in the experiment with NCI-H522 lung, 90.1 µM; in the experiment with A549 NSCLC, > 100 µM. The TGI in the experiment with CAKI-1 renal is > 100 µM; with SF-539 CNS it was > 100 µM; in the experiment with MDA-N, 59.3 µM; in the experiment on HS 578T breast, > 100 µM; with UACC-257 melanoma, > 100 µM.
Take `CCOC(=O)c1c(N)nn2c1cc1cccccc12`: the TGI in the experiment on SNB-19 CNS was > 100 µM; with COLO 205 colon, 78.4 µM; in the experiment on OVCAR-5 ovarian, > 100 µM; in the experiment with SK-OV-3 ovarian it was > 100 µM; with HOP-62 NSCLC, > 100 µM; in the experiment on HCC-2998 colon, > 100 µM. For the same molecule, the TGI in the experiment with SK-MEL-5 melanoma is 69 µM; in the experiment on PC-3 prostate, 53.7 µM; with SW-620 colon it was > 100 µM; in the experiment with HT29 colon it was > 100 µM; in the experiment on TK-10 renal, 74.6 µM; in the experiment on NCI-H522 lung, 46.7 µM. The TGI in the experiment with A549 NSCLC is > 100 µM; with CAKI-1 renal it was > 100 µM; in the experiment with SF-539 CNS, > 100 µM; in the experiment on MDA-N, > 100 µM; with SK-MEL-28 melanoma, 83.3 µM; with HS 578T breast, 82.8 µM. In the experiment with UACC-257 melanoma, this molecule came in with a TGI of 71.5 µM.
In the case of `O=c1[nH]nc(Cc2ccccc2)n1/N=C/c1c(O)ccc2ccccc12`, the TGI was 46.5 µM in the experiment on SNB-19 CNS; > 100 µM with COLO 205 colon; > 100 µM in the experiment with HCC-2998 colon; 48.7 µM in the experiment with SK-MEL-5 melanoma; 79.2 µM in the experiment with SNB-75 CNS; 64 µM in the experiment with PC-3 prostate. For the same molecule, the TGI with SW-620 colon was > 100 µM; in the experiment on HT29 colon, 83.9 µM; in the experiment on TK-10 renal, > 100 µM; in the experiment with NCI-H522 lung, 35.5 µM; in the experiment with A549 NSCLC, > 100 µM; in the experiment on CAKI-1 renal, 88.8 µM. The TGI was 42.9 µM in the experiment with SF-539 CNS, > 100 µM in the experiment with MDA-N, 81.1 µM in the experiment with HS 578T breast and > 100 µM with UACC-257 melanoma.
